Reference: ChEMBL document CHEMBL5625183, “Discovery of a novel dual-target inhibitor of CDK12 and PARP1 that induces synthetic lethality for treatment of triple-negative breast cancer” (Eur J Med Chem, 2023)
Calls of active or inactive are those of the source. No cut-off for these calls is given here.

How the values were obtained:
[1] = Volume of distribution at steady state in Sprague-Dawley rat at 1 mg/kg, iv measured upto 24 hrs by LC-MS/MS analysis; format: ADME, organism-based; settings: in vivo, read-out: Vdss
[2] = target: Cyclin-dependent kinase 1 (Homo sapiens, UniProt P06493); test: Inhibition of CDK1 (unknown origin) at 1 uM relative to control
Chain of Cyclin-dependent kinase 1 (P06493 whole entry, looked up): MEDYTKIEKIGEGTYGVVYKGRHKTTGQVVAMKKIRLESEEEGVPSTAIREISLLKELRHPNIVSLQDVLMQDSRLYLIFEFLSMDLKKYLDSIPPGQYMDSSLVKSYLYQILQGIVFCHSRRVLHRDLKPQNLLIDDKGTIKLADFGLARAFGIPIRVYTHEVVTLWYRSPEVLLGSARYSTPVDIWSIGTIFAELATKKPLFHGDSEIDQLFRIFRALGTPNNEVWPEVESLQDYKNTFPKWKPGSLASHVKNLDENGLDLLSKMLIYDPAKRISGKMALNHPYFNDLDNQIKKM

[3] = system: MDA-MB-436; test: Downregulation of Pol II CTD at ser2 residue expression in human MDA-MB-436 cells incubated for 24 hrs; format: functional, cell-based; settings: dose 5-20 µM
[4] = target: T1, Cyclin-dependent kinase 12 (Homo sapiens, UniProt Q9NYV4); test: Inhibition of CDK12 (unknown origin) at 20 uM in presence of ATP by kinase-glo plus luminescent assay relative to control
T1 sequence (Q9NYV4 whole entry, looked up): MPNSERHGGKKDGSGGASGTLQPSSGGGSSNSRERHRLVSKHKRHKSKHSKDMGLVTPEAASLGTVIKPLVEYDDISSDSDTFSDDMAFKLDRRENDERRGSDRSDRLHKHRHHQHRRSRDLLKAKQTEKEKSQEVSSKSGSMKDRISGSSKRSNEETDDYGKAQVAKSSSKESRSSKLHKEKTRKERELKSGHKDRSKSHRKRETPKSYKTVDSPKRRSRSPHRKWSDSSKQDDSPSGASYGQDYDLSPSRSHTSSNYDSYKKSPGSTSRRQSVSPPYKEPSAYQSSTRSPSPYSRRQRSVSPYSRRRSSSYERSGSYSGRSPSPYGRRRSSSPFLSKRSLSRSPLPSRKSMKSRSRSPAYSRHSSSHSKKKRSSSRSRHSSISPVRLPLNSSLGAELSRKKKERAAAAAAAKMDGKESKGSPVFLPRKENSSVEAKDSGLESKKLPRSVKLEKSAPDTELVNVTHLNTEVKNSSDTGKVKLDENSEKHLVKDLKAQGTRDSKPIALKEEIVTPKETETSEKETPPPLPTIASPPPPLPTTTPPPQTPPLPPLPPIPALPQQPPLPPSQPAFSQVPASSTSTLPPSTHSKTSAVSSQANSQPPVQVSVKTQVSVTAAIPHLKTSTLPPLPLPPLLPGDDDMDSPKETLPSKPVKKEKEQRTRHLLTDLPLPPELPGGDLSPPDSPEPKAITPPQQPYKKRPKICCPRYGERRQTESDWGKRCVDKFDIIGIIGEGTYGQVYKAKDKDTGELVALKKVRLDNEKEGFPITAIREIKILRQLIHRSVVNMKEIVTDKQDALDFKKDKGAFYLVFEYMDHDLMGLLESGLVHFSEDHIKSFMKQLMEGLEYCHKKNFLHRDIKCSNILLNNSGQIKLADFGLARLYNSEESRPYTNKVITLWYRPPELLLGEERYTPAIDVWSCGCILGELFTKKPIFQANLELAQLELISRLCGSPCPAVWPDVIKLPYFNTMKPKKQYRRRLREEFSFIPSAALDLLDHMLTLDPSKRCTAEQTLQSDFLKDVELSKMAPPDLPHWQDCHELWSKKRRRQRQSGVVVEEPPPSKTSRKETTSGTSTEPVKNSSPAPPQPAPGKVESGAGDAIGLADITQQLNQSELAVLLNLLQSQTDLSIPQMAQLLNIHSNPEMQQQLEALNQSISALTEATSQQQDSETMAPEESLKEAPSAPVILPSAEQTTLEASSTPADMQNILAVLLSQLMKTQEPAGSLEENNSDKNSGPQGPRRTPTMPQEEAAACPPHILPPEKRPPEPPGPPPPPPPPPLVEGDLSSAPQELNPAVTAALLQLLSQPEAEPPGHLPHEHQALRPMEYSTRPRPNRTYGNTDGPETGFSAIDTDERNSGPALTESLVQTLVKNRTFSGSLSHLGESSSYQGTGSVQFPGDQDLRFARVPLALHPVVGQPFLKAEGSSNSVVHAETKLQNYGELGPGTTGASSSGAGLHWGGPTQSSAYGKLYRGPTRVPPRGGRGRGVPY

[5] = target: T1, Cyclin-dependent kinase 12; test: Binding affinity to CDK12 in human MDA-MB-436 cells assessed as increase in protein thermal stabilization at 10 uM incubated for 6 hrs by CETSA based Western blot analysis; format: cell-based
[6] = system: MDA-MB-231; test: Antiproliferative activity against human MDA-MB-231 cells transfected with wild type CDK12 and PARP1 G863A mutant incubated for 24 hrs by MTT assay; format: functional, cell-based
[7] = system: MDA-MB-231; test: Antiproliferative activity against human MDA-MB-231 cells transfected with CDK12 M816A and PARP1 G863A mutant incubated for 24 hrs by MTT assay; format: functional, cell-based
[8] = system: MDA-MB-231; test: Induction of […] in human MDA-MB-231 cells assessed as increase in gamma-H2AX foci formation at 10 uM incubated for 24 hrs by confocal laser scanning microscopic analysis; format: functional, cell-based
[9] = system: MDA-MB-231; test: […] DNA repair in human MDA-MB-231 cells assessed as decrease in RAD51 level at 10 uM incubated for 24 hrs by confocal laser scanning microscopic analysis; format: functional, cell-based
[10] = system: MDA-MB-231; test: Induction of cell cycle arrest in human MDA-MB-231 cells assessed as accumulation of cells at S phase at 10 uM measured after 24 hrs by PI staining based cytometry analysis (reference value: 23.01 %); format: functional
[11] = system: MDA-MB-436; test: Induction of cell cycle arrest in human MDA-MB-436 cells assessed as accumulation of cells at G1 phase at 10 uM measured after 24 hrs by PI staining based cytometry analysis (reference value: 72.04%); format: functional
[12] = system: MDA-MB-436; test: Induction of cell cycle arrest in human MDA-MB-436 cells assessed as accumulation of cells at S phase at 10 uM measured after 24 hrs by PI staining based cytometry analysis (reference value: 25.43%); format: functional
[13] = system: MDA-MB-468; test: Inhibition of cell migration in human MDA-MB-468 cells assessed as downregulation of MMP-2 level by measuring fluorescence intensity at 10 uM incubated for 24 hrs by confocal microscopic analysis; format: functional, cell-based
[14] = system: MDA-MB-231; test: Induction of apoptosis in human MDA-MB-231 cells assessed as upregulation of cleaved-caspase 3 expression incubated for 24 hrs; format: functional, cell-based; settings: dose 5-20 µM
[15] = system: MDA-MB-231; test: Induction of apoptosis in human MDA-MB-231 cells assessed as upregulation of Bax expression incubated for 24 hrs; format: functional, cell-based; settings: dose 5-20 µM

Vd [1]: 1.39 L/kg
inhibition [2]: > 60%
inhibition [4]: Active
Activity [5]: Active
Structure (SMILES): NC(=O)c1cccc2[nH]c(NC(=O)c3cccc(C(=O)N4CCC(Nc5ncc(I)cn5)CC4)c3)nc12
Activity [3]: Dose-Dependent Effect
Activity [6]: Active
Activity [7]: Active
Activity [8]: Active
Activity [9]: Active
Activity [10]: 17.93%
Activity [11]: 66.94%
Activity [12]: 25.71%
inhibition [13]: Active
Activity [14]: Dose-Dependent Effect
Activity [15]: Dose-Dependent Effect
